Laboratory results reported in US10463695B2, “Methods and compositions for use in the prevention, treatment and/or alleviation of cancer” (priority 2016, dated 2019).
Where two headings read alike, the source gives them in different places.

Tests used:
[1] = Whole body autoradiography of pregnant mice, cadmium isotope 109Cd; assay type: in vivo; conditions: for Passage of Cd through the placenta: pregnant mice, intravenous 109CdCl2, about 18th day after conception, autoradiography
Protocol: (§1) The present inventor commissioned studies where the function of the placenta was investigated using radioactive isotopes of cadmium and zinc. Pregnant female mice were injected intravenously with 8 μc of ^109CdCl2 obtained from Philips Ltd., Eindhoven, Holland. The injection of isotope was made into the tail vein according to standard practice. The mice were injected so that the day of sacrifice coincided approximately with the 18th day after conception, determined by the presence of a vaginal plug after mating. The mice were sacrificed under ether anesthesia by immersion in a mixture of acetone and liquid carbon dioxide (about −80 C). The mice were then sagittally sectioned in a cold room at −10 C according to standard practice, and the sections obtained were affixed to cellulose tape.
(§2) Each section was then apposed to X-ray film together with an isotope reference standard. The sections and films were kept at −10 C until exposure was complete. The determination of the order of cadmium and zinc concentration in different organs was made through densitometric comparison of the autoradiographic exposure caused by the organs, compared to the reference standard.

[2] = cited from earlier work
[3] = Whole body autoradiography of pregnant mice, zinc isotope 65Zn; assay type: in vivo
Protocol: as §1, §2

| Compound | Passage of Cd through the placenta [1] | Passage of Cd through the placenta ([1]; listed as 109Cd) | Tissue enrichment of 109Cd ([1]; pregnant mouse, autoradiograph, FIG. 3) | Concentration at which acute toxicity is observed ([2]; cadmium in blood) | Threshold at which medical treatment needs to be initiated ([2]; cadmium, information supplied by VITA Laboratorio) [nmol/L] | Passage of Zn through the placenta [3] | Passage of Zn through the placenta ([3]; listed as 65Zn) |
| --- | --- | --- | --- | --- | --- | --- | --- |
| [Cd] [Cd, cadmium] | did not pass the placental barrier | no cadmium has passed through the placenta into the fetus | enriched in the liver and kidney, and to some extent in placental tissue | around 50 μng/ml | 50 | – | – |
| [Zn] [Zn, zinc] | – | – | – | – | – | passed through the placenta and was enriched in the fetal tissue | capable of passing through the placenta |
